Assay results: patent publication US20240180881A1, “METHODS FOR DECREASING RESISTANCE TO CHEMOTHERAPY” (National Institute of Immunology, priority 2022, published 2024)

Tests used:
RAD54-BLM interaction = target: T1, RAD54-BLM interaction (Homo sapiens, UniProt Q92698); test: In vitro interaction assay, bound GST-BLM WT and soluble His-RAD54 WT; assay type: binding; details: 10 μM compound
T1 construct: made in house; host or cells: E. coli BL-21 DE3
T1 sequence (Q92698 1-747): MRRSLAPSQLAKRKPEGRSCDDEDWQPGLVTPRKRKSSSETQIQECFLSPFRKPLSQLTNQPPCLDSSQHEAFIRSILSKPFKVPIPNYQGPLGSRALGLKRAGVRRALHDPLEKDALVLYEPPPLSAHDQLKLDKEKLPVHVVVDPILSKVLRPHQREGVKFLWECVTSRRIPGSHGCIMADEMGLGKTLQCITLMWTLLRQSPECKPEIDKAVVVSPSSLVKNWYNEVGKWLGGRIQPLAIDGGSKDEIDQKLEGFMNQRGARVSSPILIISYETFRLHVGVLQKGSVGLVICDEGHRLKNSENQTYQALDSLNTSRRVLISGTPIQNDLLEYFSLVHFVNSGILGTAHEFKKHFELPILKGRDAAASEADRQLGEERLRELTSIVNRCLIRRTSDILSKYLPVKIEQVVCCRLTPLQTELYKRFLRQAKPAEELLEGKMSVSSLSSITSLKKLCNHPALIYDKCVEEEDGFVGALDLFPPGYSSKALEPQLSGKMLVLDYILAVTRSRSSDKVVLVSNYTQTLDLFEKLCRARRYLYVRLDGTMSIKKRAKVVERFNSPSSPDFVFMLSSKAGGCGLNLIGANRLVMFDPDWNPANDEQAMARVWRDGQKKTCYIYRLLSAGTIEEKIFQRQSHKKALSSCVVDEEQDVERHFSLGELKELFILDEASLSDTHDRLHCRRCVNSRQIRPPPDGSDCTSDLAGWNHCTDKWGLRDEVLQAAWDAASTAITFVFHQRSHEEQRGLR
Experimental: (§1) The levels of bound RAD54 were determined by immunoblotting with anti-RAD54 antibody (FIG. 5B). […] (Left) Direct westerns were carried out with antibodies against BLM, RAD54, bActin. (Right) immunoprecipitation (IP) was carried out with anti-BLM antibody. Westerns were carried out with anti-BLM, anti-RAD54 antibodies. The experiment was repeated three times and one representative experiment has been shown (FIG. 11B).
pcDNA3.1 Flag RAD54 was used for coupled in vitro transcription/translation of RAD54 using T7 Quick coupled Transcription/Translation System kit S^35 methionine. Interaction between bound GST-BLM (wildtype or mutants) and radiolabelled RAD54 were carried out as described previously (Gupta et al., 2014). […] 10 μM of the 3 compounds were used in the in vitro interaction assays.

[1] = system: HCT116 CPT(R) cells stably expressing BLM (Delta 181-212) in BLM−/− background; test: Xenograft, cells expressing BLM (Delta 181-212); assay type: in vivo, NSG mice; details: for tumour volume, chemosensitivity to camptothecin: CPT + compound
Experimental: Xenografts assays were carried out in NSG mice using HCT116 CPT(R) cells stably expressing BLM (Delta 181-212) in BLM−/− background. FIGS. 15A-15C show the tumour volumes post-injection of cells.
RNA (FIG. 15D) or protein (FIG. 15E) levels of the indicated MDR genes were determined by RT-qPCR or immunoblotting with the indicated antibodies.

[2] = target: T2, RAD54-BLM interaction in HEK293T cells (Homo sapiens, UniProt Q92698); test: In cellulo interaction assay, immunoprecipitation with anti-BLM antibody; assay type: cell-based; details: 100 nM compound, 72 hours
T2 construct: endogenous in cells; host or cells: HEK293T
T2 sequence (Q92698 1-747): T1 sequence (Q92698 1-747)
Experimental: as §1

HCT116 IC60 CPTR cells = test: Soft agar assay; assay type: cell-based; details: 100 nM compound along with 120 nM of CPT
Experimental: (§2) Concentrations of CPT used: 0.140 nM, 20 nM, 50 nM, 1000 nM. Concentration of 1-OHP: 0.14 μM, 2 μM, 4 μM, 6 μM, 8 μM. Concentrations of CDDP used: 0.140 μM, 2 μM, 5 μM, 10 μM. The percentage of viable cells were determined by MTT assays (FIG. 12A-12C). The data in FIG. 12A and FIG. 12C is from three independent experiments and the data in FIG. 12B is from nine independent experiments. […] The levels of MRP2, MRP3, MRP5, MXR were quantitated from three independent experiments. […] Specifically, HCT116 IC60 CPTR cells were transfected with the HR substrate for 72 hours and the levels of HR was determined (FIG. 6A). The data is from three independent experiments. […] The number of soft agar colonies in each condition were counted. The data is from three independent experiments.
3000 cells mixed with 0.4% agar and seeded on top of the 6-well plates pre-coated with 0.8% agar. The resistant cells were treated with 120 nM of CPT. Post-incubation cells were seeded. […] The colonies were then counted after 15 days after staining with 0.25% Crystal Violet.

[3] = system: MRP2 in HCT116 WT IC60 CPTR cells; test: MRP2 activity, CDF accumulation; assay type: cell-based; details: combinatorial treatment with CPT
Experimental: The cells were incubated with MRP2 substrate CDFD for 30 minutes at 37° C. The accumulation of florescent product CDF was determined as a measure of MRP2 activity (FIG. 12E). The data is from three independent experiments. Mean±S.D.

[4] = system: MDR genes (MRP2, MRP3, MRP5, MXR) in HCT116 IC60 CPTR cells; details: 100 nM compound alone, 72 hours
Experimental: as §2

RAD54 = target: T3, RAD54 (Homo sapiens, UniProt Q92698); test: ATP binding assay; assay type: biochemical; details: 10 μM compound
T3 construct: GST RAD54 (1-747) (WT); made in house; host or cells: E. coli BL-21 DE3
T3 sequence (Q92698 1-747): T1 sequence (Q92698 1-747)
Experimental: The quantitation of the ATP binding assay was carried out using RAD54 WT, RAD54 WT+BLM_peptide, and RAD54 WT+SCM_peptide. The data is from three independent experiments. Mean±S.D.
The presence of the disruptors also led to a decrease in the ATP binding to RAD54.
A 20 μl reaction was set up with 120 nM of GST-RAD54 and 180 nM of either BLM_peptide or SCM_peptide or BLM (1-212) using 4 μl of 5×ATP binding assay buffer (100 mM Tris-Cl pH 7.5, 50 mM MgCl2, 10 mM MnCl2, 5 mM DTT) and 5 μCi of [γ^32P]dATP. […] Reactions were incubated at 30° C. for 20 minutes and were stopped with 10% TCA and samples were spotted on P81 phosphocellulose paper followed by washing of paper strips with 75 mM orthophosphoric acid. A minimum of 8 washes were given in 20 hrs of 1 hr each including a 12 hr wash. Following this, strips were dehydrated in ethanol for 10 min followed by liquid scintillation counting. Reactions without the substrate were spotted as control and the same process repeated.

SMILES | levels of RAD54 bound to GST-BLM WT (RAD54-BLM interaction) | tumour volume, chemosensitivity to camptothecin [1] | RAD54 co-immunoprecipitated with BLM [2] | number of soft agar colonies (anchorage independent growth) (HCT116 IC60 CPTR cells) | MRP2 activity, accumulation of CDF [3] | transcript levels of MDR genes [4] | BLM dependent enhancement of ATP binding by RAD54 (RAD54) | RNA and protein levels of the MDR genes in tumours ([1]; without or with compound treatment)
OCCN(CCO)c1nc(N2CCCCC2)c2nc(N(CCO)CCO)nc(N3CCCCC3)c2n1 [C7, Dipyridamole] | disrupted the RAD54-BLM interaction | abrogates the functions | disrupted the RAD54-BLM interaction | decreased anchorage independent cell growth | decreased MRP2 activity | do not alter the transcript levels of MDR genes | decreased BLM dependent enhancement of the binding of ATP by RAD54 | 
CN1CCN(C2=Nc3ccccc3Oc3ccc(Cl)cc32)CC1.O=C(O)CCC(=O)O [C17, Loxapine succinate] |  | abrogates the functions |  | decreased anchorage independent cell growth | decreased MRP2 activity |  | decreased BLM dependent enhancement of the binding of ATP by RAD54 | unaffected
CC(=O)Nc1nnc(S(N)(=O)=O)s1 [C3, Acetazolamide] | disrupted the RAD54-BLM interaction | abrogates the functions | disrupted the RAD54-BLM interaction | decreased anchorage independent cell growth | decreased MRP2 activity | do not alter the transcript levels of MDR genes | decreased BLM dependent enhancement of the binding of ATP by RAD54 | 
